15 molecules from patent publication US4792555A, “Phospholipase A2 inhibitors” (American Home Products Corporation, priority 1987, dated 1988) can be followed below.

Structures can show the parent of a compound that is named as a salt. Where two headings read alike, the source gives them in different places.

Assay [1] deals with 12-O-tetradecanoylphorbol acetate (TPA)-induced murine ear edema. Nature of the assay: TPA-induced murine ear edema test. Type of assay: in vivo, Swiss Webster female mice. Particulars: oral, 30 minutes after TPA; 4 μg TPA/ear; measured 4 hours after TPA; dose in mg/kg not given. On the procedure: The ability of the compounds of the invention to inhibit PLA2 is further examined in the in vivo 12-O-tetradecanoylphorbol acetate (TPA)-induced murine ear edema test. According to this test, Swiss Webster female mice (Buckshire), approximately 8 weeks old, are placed into plastic boxes in groups of six. Eight groups of mice receive TPA topically on the right ear. TPA is dissolved in acetone at a concentration of […]. The phlogistics are applied to the right ear by the means of an automatic pipet. Volumes of 10 μl are applied to the inner and outer surfaces of the ear. Each mouse receives 4 μg/ear TPA. The left ear (control) receives acetone delivered in the same manner. […] Measurements are taken with Oditest calipers, 0-10 mm with 0.01 graduations. The right and left ears are measured 4 hours after TPA-induced inflammation. The difference between right and left ear thickness is calculated and the significance is determined by a one way analysis of variance with Dunnett's comparisons to control (P=0.05). Drug effects are expressed as a percent change from control values: [formula]

For assay [2], the target named is T1, human platelet PLA2 (Homo sapiens, UniProt P14555).
T1 sequence (P14555 21-144): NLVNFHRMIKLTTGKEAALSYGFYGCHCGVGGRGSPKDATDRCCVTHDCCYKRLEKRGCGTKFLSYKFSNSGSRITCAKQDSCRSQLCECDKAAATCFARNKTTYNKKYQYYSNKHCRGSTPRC
Nature of the assay: Inhibition of human platelet PLA2 (hydrolysis of [1-14C]oleic acid labelled E. coli membrane phospholipids) in vitro. In kind it is biochemical. The conditions noted are these: for IC50: standard drugs.
Experimental: The ability of the compounds to inhibit the activity of PLA2 enzyme is measured in the following in vitro assay.
The assay measures the hydrolysis of E. coli membrane phospholipids and the release of free [1-^14 C] oleic acid from the C-2 position of phospholipids by human platelet PLA2. To ice cold 15×100 mm test tubes, the following additions are made: 2,5×10 E. coli (equivalent to 4 nmol phospholipid), 5 mM Ca^++, 100 mM Tris buffer (pH=7.4), 100 μg platelet extract (or an amount to produce 20-30% hydrolysis), drug or vehicle. The final volume is adjusted to 500 μl with water. Mixtures are vortexed and incubated for 30 minutes in a shaking water bath. It should be noted that preliminary experiments are always performed with each new batch of platelets to establish linear hydrolysis of phospholipids with regard to protein concentration and time. The enzyme reaction is stopped by the addition of 3 volumes of chloroform to each tube which is vortexed and then centrifuged for 5 minutes at 500 g. The lower chloroform/methanol phase is removed and evaporated under N. The dried residue is redissolved in 50 μl CHCl3 :CH3 OH (9:1 v/v), spotted on aluminum-backed chromatographic plates and developed in a solvent system consisting of petroleum ether:diethyl ether:acetic acid (80:20:1). Free fatty acid ([1-^14 C]oleic acid) and [1-^14 C]oleic acid labeled phospholipids are visualized with exposure to iodine vapors. Radioactive areas that cochromatographed with authentic oleic acid and phospholipid standards are cut out and placed in a scintillation vial. One ml CH3 OH and 10 ml Hydrofluor are added to each cut strip and radioactivity is determined by liquid scintillation counting.
The percent hydrolysis is calculated by the following equation: [formula]

Assay [3] has as its system rat carrageenan paw edema. Nature of the assay: Rat carrageenan paw edema assay. Particulars: for % Inhibition (paw edema): 100 mg/kg peroral, 1 hour prior to carrageenan, paw read at 3 hours. In kind it is in vivo, male Sprague-Dawley rats. On the procedure:
The compounds of the invention are further tested in the rat carrageenan paw edema assay to determine their ability to inhibit the acute inflammatory response.
This assay is carried out as follows:
140-180 gm male Sprague-Dawley rats, in groups of 6 animals are injected subcutaneously in the right paw with 0.1 ml of 1% carrageenan at zero time. Mercury plethysmographic readings (ml) of the paw are made at zero time and 3 hours later. Test compounds are suspended or dissolved in 0.5% methylcellulose and given perorally 1 hour prior to carrageenan administration.
The increase in paw volume (edema in ml.) produced by the carrageenan is measured. […] Unpaired Student's t-test used to determine statistical significance.
In general terms: In the carrageenan paw model, swelling and tenderness develop within hours.

The test system of assay [4] is synthesis of arachidonic acid, PGE2 and LTC4 by murine peritoneal macrophages. Nature of the assay: Inhibition of synthesis of arachidonic acid, PGE2 and LTC4 by murine peritoneal macrophages. Particulars: Mus musculus, Peritoneal macrophage, 2 hours. Type of assay: cell-based, CD-1 mice. On the procedure: The ability of the compounds of the invention to inhibit both leukotriene and prostaglandin synthesis is examined in an assay which measures the ability of the compounds of the invention to inhibit the synthesis of arachidonic acid, PGE2 and LTC4 by murine peritoneal macrophages.
The assay is carried out as follows:
Macrophages are removed from the peritoneal cavity of 55-57 day old CD-1 mice (killed by CO2 asphyxiation) by peritoneal lavage and centrifuged at 400×g for ten minutes. The cells are resuspended in Medium 199 and 4×10^6 cells are allowed to adhere on 35×10 mm Petri dishes for 1.5 hours at 37° C. in an atmosphere of 95% air and 5% CO2. The cell monolayers are washed and incubated overnight in Medium 199 supplemented with 10% heat inactivated bovine serum containing 1μCi[^14 C]-arachidonic acid, or in the absence of ^14 C-arachidonic acid when the supernatant is to be assayed by radioimmunoassay (RIA). The labeled cells are then washed and incubated at 37° C. for 2 hours in Medium 199 with the prostaglandin stimuli, zymosan, or 12-o-tetradecanoyl-phorbol-13-acetate (TPA) and in the presence or absence of test compounds. Following incubation, the supernatant is removed and subjected to radioimmunoassay in order to determine the percent inhibition of arachidonic acid, prostaglandin E2 and leukotriene C4 by the test compounds.

Where [5] appears, read: pH 7.4, read-out: % Inhibition of PLA2.
Setting [6] is: at 100 μM, human platelet PLA2, 30 minutes, pH 7.4, read-out: % Inhibition of PLA2.
Where [7] appears, read: human platelet PLA2, 30 minutes, pH 7.4.

As a reminder, the inhibition is the change of the read-out against control, counted positive when it falls. Turning to `CCCCCCCCCCCCCCCCNC(=O)C(N)CCCC.Cl` (centres unmarked) [Example 1, 2-Amino-N-hexadecylhexanamide, hydrochloride], in assay [1], the “% Change from Control (mouse ear edema)” value is on record as -25%. The inhibition at 100 µM in assay [2] (setting [5]) came to 99%.
In the case of `CCCCC(N)C(=O)NC1CCCCCCCCCCC1.Cl` (centres unmarked) [Example 2a, 2-Amino-N-cyclododecylhexanamide, hydrochloride], the “% Change from Control (mouse ear edema)” value in assay [1] is -60%. Moreover, the inhibition at 100 µM in assay [2] (setting [5]) was 76%. In addition, the “% Inhibition (paw edema)” value in assay [3] is 22%.
Regarding `CCCC[C@H](N)C(=O)N1CCC(C)CC(C)(C)C1` (stereo partly drawn) [Example 2b, 1-[(S)-2-Amino-1-oxohexyl]hexahydro-3,3,5-trimethyl-1H-azepine, hydrochloride], the inhibition at 100 µM in assay [2] (setting [5]) was found to be 25%.
Regarding `CCCC[C@H](N)C(=O)N1CCC2CCCCC2C1` (stereo partly drawn) [Example 2c, 2-[(S)-2-Amino-1-oxohexyl]decahydroisoquinoline, hydrochloride hemihydrate], the inhibition at 100 µM in assay [2] (setting [6]) was determined as 24%.
As for `CCCC[C@H](NC(=O)CCCCCCc1ccccc1)C(=O)N1CC(C)NC(C)C1` (stereo partly drawn) [Example 3, N-[(S)-1-Butyl-2-(3,5-dimethyl-1-piperazinyl)-2-oxoethyl]benzeneheptanamide], in assay [1], the “% Change from Control (mouse ear edema)” value was -39%. Besides, the inhibition at 100 µM in assay [2] (setting [6]) came out at 64%.
As for `CCCCC(NC(=O)Cc1ccc(-c2ccccc2)cc1)C(=O)N1CC(C)NC(C)C1` (centres unmarked) [Example 4, N-[1-[(3,5-Dimethyl-1-piperazinyl)carbonyl]pentyl][1,1'-biphenyl]-4-acetamide], the inhibition at 100 µM in assay [2] (setting [6]) was determined as 52%.
By IC50 is commonly meant the concentration at which inhibition is half-maximal. Consider `CCCCCCCCCCCCCCCCNC(=O)[C@@H]1CCCN1` [Example 5a, N-(S)-Hexadecyl-2-pyrrolidinecarboxamide], for which the IC50 in assay [4] (arachidonic acid, zymosan or TPA stimulus, read-out: IC50 AA) was 19.6 µM; in assay [4] (leukotriene C4, zymosan or TPA stimulus, read-out: IC50 LTC4), 7.6 µM; in assay [4] (prostaglandin E2, zymosan or TPA stimulus, read-out: IC50 PGE2), 13.7 µM. In assay [1], the “% Change from Control (mouse ear edema)” value is recorded as -53%. Further, the inhibition at 100 µM in assay [2] (setting [6]) is 92%. The “% Inhibition (paw edema)” value in assay [3] worked out at 26%.
Regarding `CCCCCCCCCCCCCCCCNC(=O)[C@H]1CCCN1` [Example 5b, N-(R)-Hexadecyl-2-pyrrolidinecarboxamide], the inhibition at 100 µM in assay [2] (setting [6]) worked out at 98%. For the same molecule, the “% Inhibition (paw edema)” value in assay [3] was 26%.
As for `O=C(NC1CCCCCCCCCCC1)C1CCCN1` (centres unmarked) [Example 5c, N-Cyclododecyl-2-pyrrolidinecarboxamide, hydrochloride], the inhibition at 100 µM in assay [2] (setting [5]) was 58%.
Still for that read-out and setting: then `O=C(NC1CCCCCCCCCCC1)C1CCCCN1` (centres unmarked) [Example 5d, N-Cyclododecyl-2-piperidinecarboxamide, hydrochloride], with 45%.
For `O=C(C1CCCCN1)N1CCC2CCCCC2C1` (centres unmarked) [Example 5f, Decahydro-2-(2-piperidininylcarbonyl)isoquinoline, hydrochloride], the inhibition at 100 µM in assay [2] (setting [6]) worked out at 24%.
As to `N[C@@H](Cc1c[nH]c2ccccc12)C(=O)NC1CCCCCCCCCCC1` [Example 6, (S)-α-Amino-N-cyclododecyl-1H-indole-3-propanamide, hydrochloride], the inhibition at 100 µM in assay [2] (setting [5]) stood at 52%.
The same measure, in the same setting: then `N[C@@H](CC(=O)OCc1ccccc1)C(=O)NC1CCCCCCCCCCC1` [Example 7, (S)-3-Amino-4-(cyclododecylamino)-4-oxobutanoic acid phenylmethyl ester, hydrochloride], with 60%.
A word on the ED50: it is the midpoint of the dose-response relation. As for `COc1ccc2c(c1)c(CC(=O)O)c(C)n2C(=O)c1ccc(Cl)cc1` [Indomethacin, reference compound], in assay [2] (setting [7]), the IC50 amounted to 48 µM. In assay [3] (Rattus norvegicus, po, 3 h, read-out: Oral ED50 (95% C.L.)), the ED50 was determined as 3.7 mg/kg.
In the case of “Gold Sodium Thiomalate [reference compound]”, the IC50 in assay [2] (setting [7]) was 43 µM.
